Marks after values point to notes of the source that are not given here.
What was measured:
[1] = Optical absorption spectra (UV-Vis spectrophotometer); assay type: physicochemical; details: for Absorption log e / Absorption λmax: Table I; for Absorption Q band / Absorption Q band Ig ε / Absorption Soret band / Absorption Soret band Ig ε: Table II
Experimental: (§1) Quartz fluorometric cells (Starna, Inc, 1 cm optical path length) were used in optical experiments. Optical spectra were recorded on a Perkin-Elmer Lambda 35 UV-Vis spectrophotometer. Steady state fluorescence and phosphorescence measurements were performed on a SPEX Fluorolog-2 spectrofluorometer (Jobin-Yvon Horiba), equipped with an infra-red enhanced R2658P PMT (Hamamatsu). Emission spectra were obtained using solutions with absorption at the excitation maxima of approximately 0.05 OD. Quantum yields of emission of all the synthesized compounds were measured relative to the fluorescence of tetraphenylporphyrin (φfl=0:11 in deox. C6H6).

[2] = Steady state phosphorescence: emission maxima, quantum yields, lifetimes; assay type: physicochemical; details: for Phosphorescence φ: PhCN, deoxygenated, relative to fluorescence of H2TPP in deoxygenated benzene
Experimental: as §1

[3] = solution in PhCN, deoxygenated by Ar-bubbling
[4] = solution in PhCN, deoxygenated by Ar-bubbling, above 900 nm large experimental errors

Row | SMILES | Absorption log e ([1]; first band) | Absorption λmax ([1]; first band) | Absorption log e ([1]; second band) | Absorption λmax ([1]; second band) | Phosphorescence λmax ([2]; Table I) | τ0 ([2]; Table I) | φp ([2]; Table I) | Absorption Q band [1] | Absorption Q band Ig ε [1] | Absorption Soret band [1] | Absorption Soret band Ig ε [1] | Phosphorescence φ [2] | Phosphorescence τ0 [2, 3] | Phosphorescence λmax [2, 4]
1 | O=C(O)c1cc(C(=O)O)cc(C2=C3N=C(C(c4cc(C(=O)O)cc(C(=O)O)c4)=c4c5ccccc5c5[n]4[Pd][n]4c2c2ccccc2c4C(c2cc(C(=O)O)cc(C(=O)O)c2)=C2N=C(C=5c4cc(C(=O)O)cc(C(=O)O)c4)c4ccccc42)c2ccccc23)c1 | 5.46 | 446 nm | 5.00 | 635 nm | 816 nm | 210 μs | 0.09 |  |  |  |  |  |  | 
2 | O=C(O)c1cc(C(=O)O)cc(C2=C3N=C(C(c4cc(C(=O)O)cc(C(=O)O)c4)=c4c5ccccc5c5[n]4[Pt][n]4c2c2ccccc2c4C(c2cc(C(=O)O)cc(C(=O)O)c2)=C2N=C(C=5c4cc(C(=O)O)cc(C(=O)O)c4)c4ccccc42)c2ccccc23)c1 | 5.23 | 433 nm | 5.00 | 622 nm | 791 nm | 41 μs | 0.30 |  |  |  |  |  |  | 
3 | O=C(O)c1cc(C(=O)O)cc(C2=C3N=C(C(c4cc(C(=O)O)cc(C(=O)O)c4)=c4c5cc6ccccc6cc5c5[n]4[Pt][n]4c2c2cc6ccccc6cc2c4C(c2cc(C(=O)O)cc(C(=O)O)c2)=C2N=C(C=5c4cc(C(=O)O)cc(C(=O)O)c4)c4cc5ccccc5cc42)c2cc4ccccc4cc23)c1 [Octacarboxytetra naphthoporphyrin Pt, Octacarboxytetra naphthoporphyrin] | 5.14 | 441 nm | 5.28 | 700 nm | 923 nm | 12 μs | 0.06 |  |  |  |  |  |  | 

Continued, values first:

Row | Absorption log e ([1]; first band) | Absorption λmax ([1]; first band) | Absorption log e ([1]; second band) | Absorption λmax ([1]; second band) | Phosphorescence λmax ([2]; Table I) | τ0 ([2]; Table I) | φp ([2]; Table I) | Absorption Q band [1] | Absorption Q band Ig ε [1] | Absorption Soret band [1] | Absorption Soret band Ig ε [1] | Phosphorescence φ [2] | Phosphorescence τ0 [2, 3] | Phosphorescence λmax [2, 4] | SMILES
4 | 5.54 | 406 nm | 4.50 | 512 nm |  | 53 μs | 0.24 |  |  |  |  |  |  |  | O=C(O)c1cc(C(=O)O)cc(C2=C3C=CC(=N3)C(c3cc(C(=O)O)cc(C(=O)O)c3)=c3ccc4[n]3[Pt][n]3c2ccc3C(c2cc(C(=O)O)cc(C(=O)O)c2)=C2C=CC(=N2)C=4c2cc(C(=O)O)cc(C(=O)O)c2)c1 [Octacarboxyporphyrin Pt, Octacarboxyporphyrin]
5 |  |  |  |  |  |  |  | 526 nm | 4.57 | 422 nm | 5.61 | 0.08 | 504 μs | 696 nm | CCCCOC(=O)c1cc(C(=O)OCCCC)cc(C2=C3C=CC(=N3)C(c3cc(C(=O)OCCCC)cc(C(=O)OCCCC)c3)=c3ccc4[n]3[Pd][n]3c2ccc3C(c2cc(C(=O)OCCCC)cc(C(=O)OCCCC)c2)=C2C=CC(=N2)C=4c2cc(C(=O)OCCCC)cc(C(=O)OCCCC)c2)c1 [Pd-1-OBu]
6 |  |  |  |  |  |  |  | 716 nm | 5.29 | 458 nm | 5.29 | 0.02 | 52 μs | 961 [c] nm | CCCCOC(=O)c1cc(C(=O)OCCCC)cc(C2=C3N=C(C(c4cc(C(=O)OCCCC)cc(C(=O)OCCCC)c4)=c4c5cc6ccccc6cc5c5[n]4[Pd][n]4c2c2cc6ccccc6cc2c4C(c2cc(C(=O)OCCCC)cc(C(=O)OCCCC)c2)=C2N=C(C=5c4cc(C(=O)OCCCC)cc(C(=O)OCCCC)c4)c4cc5ccccc5cc42)c2cc4ccccc4cc23)c1 [Pd-3-OBu]
